Marks after values point to notes of the source that are not given here.
Test system: rabbits subjected to anterior cruciate ligament transection (ACLT)
Experiment: Rabbit ACLT study, µCT of trabecular bone
Type: in vivo
Text: The animals were acquired following review and approval by the Institutional Animal Care and Use Committee (IACUC) at Numira (Salt Lake City, UT). The protocol was also reviewed and approved by the IACUC at Ibex Preclinical Research Inc. (Logan, UT). Male, New Zealand White rabbits (n = 32) were purchased from the Western Oregon Rabbit Co. (Philomath, OR). The animals were approximately 9 months old, weighed 3.7–4.5 kg at the start of the experiment and were randomized into four treatment groups based on body weight.
Pre-operative butorphanol (0.5–1.0 mg/kg, i.m.) for analgesia and glycopyrrolate (~ 0.1 mg/kg i.m.) were administered up to 15 min prior to induction. Anesthesia was induced by a mixture of ketamine (20–40 mg/kg, i.m.) and xylazine (5–10 mg/kg, i.m.), followed by placement of an endotracheal tube. General anesthesia was maintained with isoflurane. Perioperative cefazolin (40 mg/kg, i.v.) was administered, and […] (0.2 mg/kg, i.v.) was administered to reverse the effects of xylazine after endotracheal intubation was complete. A fentanyl patch (25 µg/h) was placed on a clipped area of the skin to provide post-operative analgesia. An incision of 1.5–2.5 cm was made in the skin over the medial side of the right knee under aseptic conditions. The patella was dislocated laterally and the knee placed in full flexion. The anterior cruciate ligament (ACL) was visualized and transected with an appropriate blade. In sham animals, the ACL was visualized but not transected. The joint was irrigated with sterile saline and closed. The muscle and skin were closed with suture and/or surgical glue. Butorphanol (0.5–1 mg/kg, i.m.) was administered after extubation to provide supplemental analgesia. The animals were then individually housed in stainless steel or plastic cages.
Starting 1 week after sham operation or ACLT, animals were dosed daily for 7 weeks by oral gavage with either MIV-711 (synthesized by Medivir and given as a suspension in 1% Methocel A4C in water) or vehicle (1% Methocel A4C in water) at a dose volume of 4 mL/kg. The four treatment groups (n = 7 in each group) were: (1) sham + vehicle; (2) ACLT + vehicle; (3) ACLT + MIV-711, 30 µmol/kg (low dose) and (4) ACLT + MIV-711, 100 µmol/kg (high dose).
Femora and tibias from all animals were subjected to µCT scanning without and with contrast reagent, to visualize bone and cartilage, respectively. Samples were scanned on a high-resolution, volumetric µCT scanner (μCT40, ScanCo Medical, Zurich, CH). The image data was acquired with the following parameters: 36 μm isotropic voxel resolution at 300 ms exposure time, 2000 views and 1 frame per view. Each sample was scanned twice, once for acquiring bone data and once for soft tissue data. After the bone scans, the knees were stained using hexabrix for contrast-enhanced imaging of the cartilage. The µCT-generated DICOM files were used to analyze the samples and to create volume renderings of the regions of interest (ROI). The raw data files were converted into a file format compatible with the segmentation software VHLab (Numira). VHLab was used for segmenting out the regions of interest (osteophyte, cartilage, and subchondral bone) for the femur and tibia of each sample. A region spanning 9 mm of the articulating surface of the femur and 6.5 mm of the tibia was selected for segmenting out the cartilage and subchondral bone in the anterior–posterior direction. After the segmentation process, the voxel count associated with each of the regions of interest was calculated using VHLab. The voxel count was then multiplied by the cubic voxel resolution to obtain volume measurements for the different ROI. Cartilage thickness was calculated using SCIRun (Scientific Computing and Imaging Institute, University of Utah). The distance from the bone to the outer surface of the articulating cartilage was calculated. An image was generated that translates the distances into a color map for viewing the thickness along the length of the cartilage. […]

[1] = Femur Lateral, high dose 100 µmol/kg
[2] = Femur Lateral, low dose 30 µmol/kg
[3] = Femur Medial, high dose 100 µmol/kg
[4] = Femur Medial, low dose 30 µmol/kg
[5] = Tibia Lateral, high dose 100 µmol/kg
[6] = Tibia Lateral, low dose 30 µmol/kg
[7] = Tibia Medial, high dose 100 µmol/kg
[8] = Tibia Medial, low dose 30 µmol/kg

With `C#C[C@@H]1CN(C(=O)[C@H](CC(C)C)NC(=O)c2ccc(-c3nc(N4CCN(C)CC4)sc3F)cc2)[C@@H]2C(=O)CO[C@H]12` [MIV-711] the Bone surface [1] was 101.7 ± 2.9 mm^2, the Bone surface/volume [1] was 18.7 ± 0.8 1/mm and the Connective density [1] was 11.90 ± 1.51 1/mm^3. It also gave a Structure model index [1] of 0.63 ± 0.11, a Tissue mineral density [1] of 673.6 ± 7.0 mgHA/ccm and a Trabecular bone volume [1] of 5.5 ± 0.2 mm^3. For the same compound, the Trabecular number [1] was 2.55 ± 0.10 1/mm, the Trabecular separation [1] was 0.40 ± 0.02 mm and the Trabecular thickness [1] was 0.19 ± 0.01 mm. The Bone surface [2] was 101.2 ± 4.3 mm^2, the Bone surface/volume [2] was 19.9 ± 1.3 1/mm and the Connective density [2] was 13.51 ± 1.54 1/mm^3. It also gave a Structure model index [2] of 0.73 ± 0.15, a Tissue mineral density [2] of 669.6 ± 8.4 mgHA/ccm and a Trabecular bone volume [2] of 5.3 ± 0.5 mm^3. For the same compound, the Trabecular number [2] was 2.58 ± 0.16 1/mm, the Trabecular separation [2] was 0.40 ± 0.03 mm and the Trabecular thickness [2] was 0.18 ± 0.01 mm. For the same compound, the Bone surface [3] was 105.2 ± 1.3 mm^2, the Bone surface/volume [3] was 15.1 ± 1.0 1/mm and the Connective density [3] was 9.14 ± 0.63 1/mm^3. For the same compound, the Structure model index [3] was 0.40 ± 0.07, the Tissue mineral density [3] was 699.1 ± 10.3 mgHA/ccm and the Trabecular bone volume [3] was 7.2 ± 0.5 mm^3. The Trabecular number [3] was 3.71 ± 0.68 1/mm, the Trabecular separation [3] was 0.30 ± 0.03 mm and the Trabecular thickness [3] was 0.22 ± 0.02 mm. The Bone surface [4] was 105.6 ± 3.8 mm^2, the Bone surface/volume [4] was 16.0 ± 1.6 1/mm and the Connective density [4] was 11.42 ± 1.61 1/mm^3. For the same compound, the Structure model index [4] was 0.48 ± 0.07, the Tissue mineral density [4] was 698.4 ± 15.7 mgHA/ccm and the Trabecular bone volume [4] was 7.0 ± 0.7 mm^3. The Trabecular number [4] was 3.02 ± 0.20 1/mm, the Trabecular separation [4] was 0.34 ± 0.02 mm and the Trabecular thickness [4] was 0.22 ± 0.03 mm. For the same compound, the Bone surface [5] was 152.7 ± 4.1 mm^2, the Bone surface/volume [5] was 14.9 ± 0.5 1/mm and the Connective density [5] was 16.25 ± 2.01 1/mm^3. For the same compound, the Structure model index [5] was 0.42 ± 0.11, the Tissue mineral density [5] was 707.0 ± 6.6 mgHA/ccm and the Trabecular bone volume [5] was 10.3 ± 0.4* mm^3. For the same compound, the Trabecular number [5] was 3.01 ± 0.16 1/mm, the Trabecular separation [5] was 0.34 ± 0.02 mm and the Trabecular thickness [5] was 0.22 ± 0.01 mm. For the same compound, the Bone surface [6] was 153.6 ± 4.1 mm^2, the Bone surface/volume [6] was 16.0 ± 1.2 1/mm and the Connective density [6] was 16.55 ± 1.95 1/mm^3. It also gave a Structure model index [6] of 0.51 ± 0.12, a Tissue mineral density [6] of 700.8 ± 10.6 mgHA/ccm and a Trabecular bone volume [6] of 9.9 ± 0.7 mm^3. For the same compound, the Trabecular number [6] was 2.96 ± 0.15 1/mm, the Trabecular separation [6] was 0.34 ± 0.02 mm and the Trabecular thickness [6] was 0.21 ± 0.01 mm. The Bone surface [7] was 124.9 ± 4.6 mm^2, the Bone surface/volume [7] was 13.2 ± 0.2 1/mm and the Connective density [7] was 8.47 ± 0.69 1/mm^3. It also gave a Structure model index [7] of 0.41 ± 0.10, a Tissue mineral density [7] of 726.9 ± 5.5 mgHA/ccm and a Trabecular bone volume [7] of 9.5 ± 0.5 mm^3. For the same compound, the Trabecular number [7] was 2.09 ± 0.15 1/mm, the Trabecular separation [7] was 0.50 ± 0.04 mm and the Trabecular thickness [7] was 0.26 ± 0.00 mm. The Bone surface [8] was 124.9 ± 3.3 mm^2, the Bone surface/volume [8] was 14.6 ± 1.2 1/mm and the Connective density [8] was 9.20 ± 1.08 1/mm^3. For the same compound, the Structure model index [8] was 0.52 ± 0.16, the Tissue mineral density [8] was 714.1 ± 13.1 mgHA/ccm and the Trabecular bone volume [8] was 8.9 ± 0.7 mm^3. For the same compound, the Trabecular number [8] was 2.05 ± 0.08 1/mm, the Trabecular separation [8] was 0.49 ± 0.02 mm and the Trabecular thickness [8] was 0.25 ± 0.02 mm. The “trabecular bone volume, lateral tibia, difference vs. sham” value (low dose 30 µmol/kg) was -8%.

Source: article PMC5845353, “The selective cathepsin K inhibitor MIV-711 attenuates joint pathology in experimental animal models of osteoarthritis” (Journal of Translational Medicine, 2018)
